Experimental data from patent US10479795B2 (Incyte Corporation, priority 2016, dated 2019).
Counter-ions that a name gives are not always drawn. Like-named read-outs stand apart in the source and are kept apart here.

Legend:
[1] = system: Phosphorylated Ribosomal Protein S6 (RPS6); test: THP-1 RPS6 ELISA Assay; type: cell-based, Human; conditions: THP-1 cells, read-out: PI3Kγ_THP1_RPS6_ELISA IC50
Method in brief: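 IC50 values come from a curve of percent inhibition against log compound concentration, using phospho-RPS6 ELISA (450 nm) on THP-1 lysates. Cells were serum-starved overnight, exposed to compound for 2 h at 37 °C, then challenged 15 min with 10 nM MCP-1.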

[2] = biological target: PI3Kδ (p110δ/p85α) Recombinant Human Protein (Homo sapiens (Human), UniProt O00329); test: PI3Kδ Scintillation Proximity Assay; type: biochemical
PI3Kδ (p110δ/p85α) Recombinant Human Protein, sequence (O00329 whole entry): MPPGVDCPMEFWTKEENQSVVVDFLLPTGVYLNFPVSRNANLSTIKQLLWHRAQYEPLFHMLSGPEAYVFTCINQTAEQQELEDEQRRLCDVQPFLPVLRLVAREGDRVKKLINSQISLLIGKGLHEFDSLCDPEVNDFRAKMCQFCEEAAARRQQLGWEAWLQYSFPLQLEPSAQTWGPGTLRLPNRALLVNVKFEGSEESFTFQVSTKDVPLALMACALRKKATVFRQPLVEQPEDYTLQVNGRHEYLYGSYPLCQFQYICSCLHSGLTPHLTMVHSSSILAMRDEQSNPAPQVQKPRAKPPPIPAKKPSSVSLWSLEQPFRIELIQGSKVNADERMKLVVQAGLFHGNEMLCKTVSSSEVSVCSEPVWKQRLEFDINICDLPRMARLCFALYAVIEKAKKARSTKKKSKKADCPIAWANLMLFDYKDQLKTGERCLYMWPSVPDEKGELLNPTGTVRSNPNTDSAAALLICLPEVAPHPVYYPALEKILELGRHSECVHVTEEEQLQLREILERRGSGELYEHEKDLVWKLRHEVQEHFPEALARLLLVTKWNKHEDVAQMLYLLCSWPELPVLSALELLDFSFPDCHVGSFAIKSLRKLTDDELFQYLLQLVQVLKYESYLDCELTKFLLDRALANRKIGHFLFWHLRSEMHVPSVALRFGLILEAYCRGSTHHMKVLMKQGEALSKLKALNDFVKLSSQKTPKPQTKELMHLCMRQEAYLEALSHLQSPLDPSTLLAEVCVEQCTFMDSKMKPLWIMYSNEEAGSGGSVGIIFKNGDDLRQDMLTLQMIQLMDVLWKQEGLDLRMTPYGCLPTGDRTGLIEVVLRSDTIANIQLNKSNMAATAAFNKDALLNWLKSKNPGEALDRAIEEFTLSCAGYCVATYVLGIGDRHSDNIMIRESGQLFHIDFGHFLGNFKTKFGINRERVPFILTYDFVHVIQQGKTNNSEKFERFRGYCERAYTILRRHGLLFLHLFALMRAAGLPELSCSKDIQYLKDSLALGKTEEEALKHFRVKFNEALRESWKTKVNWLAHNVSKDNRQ
PI3Kδ (p110δ/p85α) Recombinant Human Protein, sequence (P27986 whole entry partner): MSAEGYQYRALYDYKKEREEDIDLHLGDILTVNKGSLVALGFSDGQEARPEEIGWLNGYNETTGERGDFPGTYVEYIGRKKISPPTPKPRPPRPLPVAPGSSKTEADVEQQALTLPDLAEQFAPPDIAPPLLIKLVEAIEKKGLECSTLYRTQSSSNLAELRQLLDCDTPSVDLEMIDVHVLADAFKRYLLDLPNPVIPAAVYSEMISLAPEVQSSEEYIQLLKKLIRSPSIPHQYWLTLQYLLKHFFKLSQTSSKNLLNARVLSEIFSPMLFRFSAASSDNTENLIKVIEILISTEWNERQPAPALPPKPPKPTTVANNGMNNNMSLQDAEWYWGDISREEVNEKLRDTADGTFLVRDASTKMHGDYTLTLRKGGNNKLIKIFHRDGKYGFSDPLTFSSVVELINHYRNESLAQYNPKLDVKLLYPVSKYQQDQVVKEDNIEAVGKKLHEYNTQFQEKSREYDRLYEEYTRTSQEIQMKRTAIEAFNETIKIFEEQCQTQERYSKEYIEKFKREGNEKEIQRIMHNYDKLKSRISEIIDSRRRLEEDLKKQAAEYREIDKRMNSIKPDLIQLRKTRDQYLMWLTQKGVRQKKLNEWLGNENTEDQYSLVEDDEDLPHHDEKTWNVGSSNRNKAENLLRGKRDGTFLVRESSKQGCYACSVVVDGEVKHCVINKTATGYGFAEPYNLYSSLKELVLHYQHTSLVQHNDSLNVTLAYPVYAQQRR
Method in brief: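 Assay conditions: 2 μM ATP (radiolabelled), 20 μM PIP2, 3.4 nM PI3Kδ, 20 mM MOPS pH 6.7 with 10 mM MgCl2, 5 mM DTT, 0.03% CHAPS, 2 h at room temperature. Signal from bead-captured 33P product; IC50 versus solvent control.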

[3] = biological target: PI3Kγ (p110γ) Recombinant Human Protein (Homo sapiens (Human), UniProt P48736); test: PI3K-γ Scintillation Proximity Assay; type: biochemical; conditions: read-out: PI3Kγ IC50
PI3Kγ (p110γ) Recombinant Human Protein, sequence (P48736 whole entry): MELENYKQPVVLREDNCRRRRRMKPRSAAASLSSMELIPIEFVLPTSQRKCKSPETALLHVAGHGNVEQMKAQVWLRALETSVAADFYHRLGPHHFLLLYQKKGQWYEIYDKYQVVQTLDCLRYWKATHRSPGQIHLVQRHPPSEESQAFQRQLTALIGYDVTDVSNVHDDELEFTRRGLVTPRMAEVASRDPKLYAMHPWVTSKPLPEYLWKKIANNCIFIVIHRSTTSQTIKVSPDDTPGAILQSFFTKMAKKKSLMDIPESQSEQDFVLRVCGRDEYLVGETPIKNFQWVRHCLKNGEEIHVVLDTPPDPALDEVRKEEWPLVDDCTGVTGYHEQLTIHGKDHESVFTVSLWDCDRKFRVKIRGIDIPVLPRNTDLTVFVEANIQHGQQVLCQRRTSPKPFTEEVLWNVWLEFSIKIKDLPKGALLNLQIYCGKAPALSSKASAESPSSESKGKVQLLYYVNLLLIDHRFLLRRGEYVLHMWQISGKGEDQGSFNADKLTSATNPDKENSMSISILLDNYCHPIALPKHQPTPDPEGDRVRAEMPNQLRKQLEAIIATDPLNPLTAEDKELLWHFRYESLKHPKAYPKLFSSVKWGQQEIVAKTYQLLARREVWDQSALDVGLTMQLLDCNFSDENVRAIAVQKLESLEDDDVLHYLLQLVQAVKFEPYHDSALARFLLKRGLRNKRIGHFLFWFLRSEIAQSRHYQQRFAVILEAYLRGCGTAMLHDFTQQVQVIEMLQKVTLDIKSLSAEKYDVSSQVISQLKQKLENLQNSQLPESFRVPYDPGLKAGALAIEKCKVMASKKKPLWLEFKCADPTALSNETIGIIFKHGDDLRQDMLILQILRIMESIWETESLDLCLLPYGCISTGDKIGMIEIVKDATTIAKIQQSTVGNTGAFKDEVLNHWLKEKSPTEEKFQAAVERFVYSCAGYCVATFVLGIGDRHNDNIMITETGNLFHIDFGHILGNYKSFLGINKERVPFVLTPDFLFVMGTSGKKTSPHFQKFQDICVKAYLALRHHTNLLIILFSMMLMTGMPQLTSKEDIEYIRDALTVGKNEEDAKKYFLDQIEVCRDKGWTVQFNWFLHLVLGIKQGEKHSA
Method in brief: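 Radiometric SPA readout: […] bound to WGA beads after overnight shaking, IC50 derived from % activity of DMSO control. Reaction used human p110γ, 2 μM ATP, 20 μM PIP2, pH 6.7 MOPS buffer with MgCl2, DTT, CHAPS, 2% DMSO, room temperature.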

IC50 ([1]; Homo sapiens) [nM]	IC50 [2] [nM]	IC50 [3] [nM]	IC50 [1] [nM]	Compound
> 1000	500 to 2000	< 100	–	Cc1ccc(S(=O)(=O)N[C@H]2CC[C@H](C(C)(C)O)CC2)cc1-c1cnc2c(N)ncnn12 [Example 125, 3-(4-aminoimidazo[2,1-f][1,2,4]triazin-7-yl)-N-[trans-4-(1-hydroxy-1-methylethyl)cyclohexyl]-4-methylbenzenesulfonamide]
–	100 to 500	< 100	< 100	Cc1ccc(S(=O)(=O)NCC2(CO)CCOCC2)cc1-c1cnc2c(N)nc(C(F)(F)F)nn12 [Example 334, 3-(4-Amino-2-(trifluoromethyl)imidazo[1,2-f][1,2,4]triazin-7-yl)-N-((4-(hydroxymethyptetrahydro-2H-pyran-4-yl)methyl)-4-methylbenzenesulfonamide trifluoroacetate salt]
> 1000	500 to 2000	< 100	–	Cc1ccc(S(=O)(=O)NCC2CCOC2)cc1-c1cnc2c(N)nccn12 (stereo not drawn) [Example 48, 3-(8-Aminoimidazo[1,2-a]pyrazin-3-yl)-4-methyl-N-(tetrahydrofuran-3-ylmethyl)benzenesulfonamide]
100 to 500	100 to 500	< 100	–	Cc1ccc(S(C)(=O)=O)cc1-c1cnc2c(N)nc(-c3cccc(CO)c3F)cn12 [Example 481, (3-(8-Amino-3-(2-methyl-5-(methylsulfonyl)phenyl)imidazo[1,2-a]pyrazin-6-yl)-2-fluorophenyl)methanol]
< 100	< 100	< 100	–	Cc1c(F)cc(S(=O)(=O)N[C@H]2CC[C@H](CC#N)OC2)cc1-c1cnc2c(N)nc(C(F)(F)F)nn12 [Example 466, 3-(4-Amino-2-(trifluoromethyl)imidazo[2,1-f][1,2,4]triazin-7-yl)-N-((3S,6R)-6-(cyanomethyl)tetrahydro-2H-pyran-3-yl)-5-fluoro-4-methylbenzenesulfonamide]
500 to 1000	100 to 500	< 100	–	[2H][C@]1(NS(=O)(=O)c2ccc(C)c(-c3cnc4c(N)ncnn34)c2)CC[C@](C)(O)CC1 [Example 508, 3-(4-Aminoimidazo[2,1-f][1,2,4]triazin-7-yl)-N-((1r,4r)-4-hydroxy-4-methylcyclohexyl-1-d)-4-methylbenzenesulfonamide trifluoroacetate]
< 100	< 100	< 100	–	Cc1ccc(S(=O)(=O)N2CC[C@@H](F)[C@@H](N)C2)cc1-c1cnc2c(N)nc(C(F)(F)F)cn12 [Example 308, 3-(5-(((3S,4R)-3-amino-4-fluoropiperidin-1-yl)sulfonyl)-2-methylphenyl)-6-(trifluoromethyl)imidazo[1,2-a]pyrazin-8-amine]
–	< 100	< 100	< 100	Cc1ccc(S(=O)(=O)N[C@H]2CC[C@@H](C#N)C2)cc1-c1cnc2c(N)nc(C(F)(F)F)nn12 (single isomer, unassigned) [Example 321]
> 1000	500 to 2000	< 100	–	Cc1ccc(S(=O)(=O)NC2CCOCC2)cc1-c1cnc2c(N)nccn12 [Example 49, 3-(8-Aminoimidazo[1,2-a]pyrazin-3-yl)-4-methyl-N-(tetrahydro-2H-pyran-4-yl)benzenesulfonamide]
> 1000	500 to 2000	< 100	–	CO[C@H]1CC[C@H](NS(=O)(=O)c2ccc(C)c(-c3cnc4c(N)nccn34)c2)CC1 [Example 53, 3-(8-Aminoimidazo[1,2-a]pyrazin-3-yl)-N-(trans-4-methoxycyclohexyl)-4-methylbenzenesulfonamide]
500 to 1000	500 to 2000	< 100	–	Cc1ccc(S(=O)(=O)N2C[C@@H]3CCO[C@@H]3C2)cc1-c1cnc2c(N)ncnn12 (relative stereo) [Example 211, 7-(5-((cis-Hexahydro-5H-furo[2,3-c]pyrrol-5-yl)sulfonyl)-2-methylphenyl)imidazo[2,1-f][1,2,4]triazin-4-amine]
100 to 500	500 to 2000	< 100	–	Cc1ccc(S(=O)(=O)NC23CC(N4CCOCC4)(C2)C3)cc1-c1cnc2c(N)nc(C(F)(F)F)cn12 [Example 296, 3-(8-Amino-6-(trifluoromethyl)imidazo[1,2-a]pyrazin-3-yl)-4-methyl-N-(3-morpholinobicyclo[1.1.1]pentan-1-yl)benzenesulfonamide trifluoroacetate salt]
< 100	100 to 500	< 100	–	[2H]C([2H])([2H])c1ccc(S(=O)(=O)NC23CCC(C#N)(C2)C3)cc1-c1cnc2c(N)ncnn12 [Example 253, 3-(4-Aminoimidazo[2,1-f][1,2,4]triazin-7-yl)-N-(4-cyanobicyclo[2.1.1]hexan-1-yl)-4-(methyl-d3)benzenesulfonamide (crystalline free base)]
100 to 500	100 to 500	< 100	–	[2H]C([2H])([2H])c1nc(N)c2ncc(-c3cc(S(=O)(=O)NCC(C)(C)O)cc(F)c3C([2H])([2H])[2H])n2n1 [Example 469, 3-(4-Amino-2-(methyl-d3)imidazo[2,1-f][1,2,4]triazin-7-yl)-5-fluoro-N-(2-hydroxy-2-methylpropyl)-4-(methyl-d3)benzenesulfonamide]
> 1000	500 to 2000	100 to 500	–	Cc1ccc(NS(=O)(=O)C2CCOCC2)cc1-c1cnc2c(N)nccn12 [Example 471, N-(3-(8-Aminoimidazo[1,2-a]pyrazin-3-yl)-4-methylphenyl)tetrahydro-2H-pyran-4-sulfonamide]
100 to 500	100 to 500	< 100	–	Cc1ccc(S(=O)(=O)N(C)[C@H]2CN(C)C[C@@H]2O)cc1-c1cnc2c(N)nc(C(F)(F)F)cn12 [Example 299, 3-(8-amino-6-(trifluoromethyl)imidazo[1,2-a]pyrazin-3-yl)-N-((3S,4S)-4-hydroxy-1-methylpyrrolidin-3-yl)-N,4-dimethylbenzenesulfonamide]
–	100 to 500	< 100	100 to 500	Cc1ccc(S(=O)(=O)NC23CC(Cn4cncn4)(C2)C3)cc1-c1cnc2c(N)nc(C(F)(F)F)nn12 [Example 338, N-(3-((1H-1,2,4-triazol-1-yl)methyl)bicyclo[1.1.1]pentan-1-yl)-3-(4-amino-2-(trifluoromethyl)imidazo[1,2-f][1,2,4]triazin-7-yl)-4-methylbenzenesulfonamide]
100 to 500	100 to 500	< 100	–	N#CC12CCC(NS(=O)(=O)c3cccc(-c4cnc5c(N)nc(C(F)(F)F)cn45)c3)(C1)C2 [Example 395, 3-(8-Amino-6-(trifluoromethyl)imidazo[1,2-a]pyrazin-3-yl)-N-(4-cyanobicyclo[2.1.1]hexan-1-yl)benzenesulfonamide trifluoroacetate salt]
> 1000	500 to 2000	< 100	–	Cc1cn2c(-c3ccc(F)c(S(=O)(=O)NC45CCC(C#N)(C4)C5)c3)cnc2c(N)n1 [Example 380, 5-(8-Amino-6-methylimidazo[1,2-a]pyrazin-3-yl)-N-(4-cyanobicyclo[2.1.1]hexan-1-yl)-2-fluorobenzenesulfonamide trifluoroacetate salt]
100 to 500	100 to 500	< 100	–	Cc1ccc(S(=O)(=O)NC23CCC(C(O)C(F)(F)F)(CC2)OC3)cc1-c1cnc2c(N)ncnn12 (racemic) [Example 437, 3-(4-Aminoimidazo[1,2-f][1,2,4]triazin-7-yl)-4-methyl-N-(1-(2,2,2-trifluoro-1-hydroxyethyl)-2-oxabicyclo[2.2.2]octan-4-yl)benzenesulfonamide trifluoroacetate salt (racemic)]
–	100 to 500	< 100	100 to 500	Cc1ccc(S(=O)(=O)NC23CC(C(C)(C)O)(C2)C3)cc1-c1cnc2c(N)ncnn12 [Example 93, 3-(4-Aminoimidazo[1,2-f][1,2,4]triazin-7-yl)-N-(3-(2-hydroxypropan-2-yl)bicyclo[1.1.1]pentan-1-yl)-4-methylbenzenesulfonamide trifluoroacetate slt]

Compound	IC50 ([1]; Homo sapiens) [nM]	IC50 [2] [nM]	IC50 [3] [nM]	IC50 [1] [nM]
Cc1ccc(S(=O)(=O)NC23CC(C)(C2)C3)cc1-c1cnc2c(N)ncnn12 [Example 117, 3-(4-Aminoimidazo[1,2-f][1,2,4]triazin-7-yl)-4-methyl-N-(3-methylbicyclo[1.1.1]pentan-1-yl)benzenesulfonamide]	–	500 to 2000	< 100	100 to 500
Cc1ccc(S(=O)(=O)NC2COC2)cc1-c1cnc2c(N)ncnn12 [Example 104, 3-(4-Aminoimidazo[1,2-f][1,2,4]triazin-7-yl)-4-methyl-N-(oxetan-3-yl)benzenesulfonamide]	–	500 to 2000	< 100	500 to 1000
N#CC12CCC(NS(=O)(=O)c3cccc(-c4cnc5c(N)nc(C(F)(F)F)nn45)c3)(C1)C2 [Example 415, 3-(4-Amino-2-(trifluoromethyl)imidazo[1,2-f][1,2,4]triazin-7-yl)-N-(4-cyanobicyclo[2.1.1]hexan-1-yl)benzenesulfonamide trifluoroacetate salt]	–	100 to 500	< 100	< 100
